{"source": "patent US20260102346A1", "about": "“LIPID COMPOSITION” (priority 2022, published 2026)", "key": {"[1]": {"system": "luciferase mRNA expression in livers and injection sites (muscles)", "assay": "In vivo luciferase expression liver/muscle of LNP and LPP with different cationic lipids (Example 10)", "parameters": "species or system Balb/c mice", "settings": "10 μg luciferase mRNA i.m., 6 hours after injection; for Liver/muscle (%, LNP): LNP preparation of the cationic lipid; for Liver/muscle (%, LPP): LPP preparation of the cationic lipid", "excerpt": "Test of in vivo luciferase signal expression: female Balb/c mice (Beijing Vital River Laboratory Animal Technology Co., Ltd.) of 6-8 weeks of age were divided into 18 groups (M5-LNP, M5-LPP, SM102-LNP, SM102-LPP, ALC0315-LNP, ALC0315LPP, SW-II-121-LNP, SW-II-121-LPP, SW-II-122-LNP, SW-II-122-LPP, SW-II-134-3-LNP, SW-II-134-3-LPP, SW-II-138-2-LNP, SW-II-138-2-LPP, SW-II-139-2-LNP, SW-II-139-2-LPP, SW-II-140-2-LNP, and SW-II-140-2-LPP groups, with 3 mice per group). M5-LNP, M5-LPP, SM102-LNP, SM102-LPP, ALC0315-LNP, ALC0315LPP, SW-II-121-LNP, SW-II-121-LPP, SW-II-122-LNP, SW-II-122-LPP, SW-II-134-3-LNP, SW-II-134-3-LPP, SW-II-138-2-LNP, SW-II-138-2-LPP, SW-II-139-2-LNP, SW-II-139-2-LPP, SW-II-140-2-LNP, and SW-II-140-2-LPP solutions containing 10 μg of luciferase mRNA were administered by intramuscular injection (hind limbs of mice), respectively. 6 Hours after the administration, mice were injected intraperitoneally with 30 mg of a […] substrate. The bioluminescence was measured in a Xenogen IVIS-200 imaging system 15 minutes after substrate injection to evaluate the expression of the luciferase mRNA in the livers and injection sites (muscles) of the mice."}, "[2]": {"system": "luciferase mRNA expression in livers and injection sites (muscles)", "assay": "In vivo luciferase expression of LNP with M5, MC3, SW-II-121 (Example 11.1)", "parameters": "species or system Balb/c mice", "settings": "LNP preparation, DSPC, PEG-DMG, 50:10:38.5:1.5, 10 μg luciferase mRNA, 6 hours after intramuscular administration", "experimental": "Test of in vivo luciferase signal expression: female Balb/c mice (Beijing Vital River Laboratory Animal Technology Co., Ltd.) of 6-8 weeks of age were divided into 3 groups (M5-LNP, MC3-LNP, and SW-II-121-LNP, with 3 mice per group). M5-LNP, MC3-LNP, and SW-II-121-LNP solutions containing 10 μg of luciferase mRNA were administered by intramuscular injection (hind limbs of mice), respectively. 6 Hours after the administration, mice were injected intraperitoneally with 30 mg of a […] substrate. The bioluminescence was measured in a Xenogen IVIS-200 imaging system 15 minutes after substrate injection to evaluate the expression of the luciferase mRNA in the livers and injection sites (muscles) of the mice."}}}
{"smiles": "CCCCCCCCC(CCCCCC)C(=O)OCCCCCCN(CCCCO)CCCCCCOC(=O)C(CCCCCC)CCCCCCCC", "note": "(stereo not shown) [ALC-0315, reference compound]", "values": [{"measurement": "Liver/muscle (%, LNP)", "setting": "[1]", "result": "199.8 ± 35.8", "unit": "%"}, {"measurement": "Liver/muscle (%, LPP)", "setting": "[1]", "result": "173.2 ± 103.9", "unit": "%"}]}
{"smiles": "CCCCCCCCCOC(=O)CCCCCCCN(CCO)CCCCCCCC(=O)OC(CCCCCCCC)CCCCCCCC", "note": "[Compound M5]", "values": [{"measurement": "Liver/muscle (%, LNP)", "setting": "[1]", "result": "10.1 ± 7.5", "unit": "%"}, {"measurement": "Liver/muscle (%, LPP)", "setting": "[1]", "result": "2.8 ± 0.3", "unit": "%"}]}
{"smiles": "CCCCCCCCCCCOC(=O)CCCCCN(CCO)CCCCCCCC(=O)OC(CCCCCCCC)CCCCCCCC", "note": "[SM-102, reference compound]", "values": [{"measurement": "Liver/muscle (%, LNP)", "setting": "[1]", "result": "6.2 ± 3.3", "unit": "%"}, {"measurement": "Liver/muscle (%, LPP)", "setting": "[1]", "result": "2.7 ± 0.6", "unit": "%"}]}
{"smiles": "CCCCCCCCC(CCCCCCCC)OC(=O)CCCCCCCN(CCO)CCCCCCCC(=O)OCCc1ccc(CCCCCCC)cc1", "note": "[SW-II-121]", "values": [{"measurement": "Liver/muscle (%, LNP)", "setting": "[1]", "result": "77.8 ± 48.9", "unit": "%"}, {"measurement": "Liver/muscle (%, LPP)", "setting": "[1]", "result": "52.2 ± 38.9", "unit": "%"}, {"measurement": "in vivo expression (luciferase, injection site and liver)", "setting": "[2]", "result": "significantly superior in vivo expression 6 hours after intramuscular administration to M5-LNP and MC3-LNP"}]}
{"smiles": "CCCCCCCCC(CCCCCCCC)OC(=O)CCCCCCCN(CCO)CCCCCCCC(=O)OCc1cccc(CCCCCC)c1", "note": "[SW-II-122]", "values": [{"measurement": "Liver/muscle (%, LNP)", "setting": "[1]", "result": "11.9 ± 1.2", "unit": "%"}, {"measurement": "Liver/muscle (%, LPP)", "setting": "[1]", "result": "2.8 ± 0.8", "unit": "%"}]}
{"smiles": "CCCCCCCCCOC(=O)CCCCCCCN(CCO)CCCCCCCC(=O)OCCc1ccc(CCCC)c(CCCC)c1", "note": "[SW-II-134-3]", "values": [{"measurement": "Liver/muscle (%, LNP)", "setting": "[1]", "result": "8.2 ± 2.9", "unit": "%"}, {"measurement": "Liver/muscle (%, LPP)", "setting": "[1]", "result": "1.5 ± 0.8", "unit": "%"}]}
{"smiles": "CCCCCCCCC(CCCCCCCC)OC(=O)CCCCCCCN(CCO)CCCCCCCC(=O)OCCCCc1ccc(CCCCC)cc1", "note": "[SW-II-138-2]", "values": [{"measurement": "Liver/muscle (%, LNP)", "setting": "[1]", "result": "8.2 ± 5.7", "unit": "%"}, {"measurement": "Liver/muscle (%, LPP)", "setting": "[1]", "result": "3.5 ± 0.2", "unit": "%"}]}
{"smiles": "CCCCCCCCC(CCCCCCCC)OC(=O)CCCCCCCN(CCO)CCCCCCCC(=O)OCCc1cccc(CCCC)c1", "note": "[SW-II-139-2]", "values": [{"measurement": "Liver/muscle (%, LNP)", "setting": "[1]", "result": "75.1 ± 16.1", "unit": "%"}, {"measurement": "Liver/muscle (%, LPP)", "setting": "[1]", "result": "2.0 ± 1.0", "unit": "%"}]}
{"smiles": "CCCCCCCCC(CCCCCCCC)OC(=O)CCCCCCCN(CCO)CCCCCCCC(=O)OCCc1ccccc1CCCC", "note": "[SW-II-140-2]", "values": [{"measurement": "Liver/muscle (%, LNP)", "setting": "[1]", "result": "7.4 ± 4.0", "unit": "%"}, {"measurement": "Liver/muscle (%, LPP)", "setting": "[1]", "result": "3.3 ± 1.5", "unit": "%"}]}
